Experimental data: patent US20050026977A1, “Zonisamide use in eating disorders” (priority 2002, published 2005)

Experiments:
[1] = test system: obese subjects (BMI of 30-44 kg/m^2); experiment: 16-week randomized, double-blind, placebo-controlled trial of zonisamide in obesity; assay type: in vivo, human
Method: Objective: Short-term efficacy and safety of zonisamide in the treatment of obesity was evaluated. Inclusion Criteria: (1) Age 21-50; (2) BMI of 30-44 kg/m^2; and (3) Otherwise healthy as determined by the principal investigator. […] Method: 60 subjects were assigned to receive zonisamide or placebo (1:1 ratio) in a randomized, double-blind fashion for 16 weeks in addition to a slightly hypocaloric (500 kcal/day deficit) diet. Zonisamide dosing was flexible with a maximum of 600 mg/day. Zonisamide was started at 100 mg/d. Based on tolerability, the dose was titrated up as follows: Weeks 3-4: 200 mg/d; Weeks 5-6: 300 mg/d; Weeks 7-12: 400 mg/d. At the end of week 12, for those where at least 5% weight loss was not achieved, the dose was further increased to 600 mg/d. The entire dose is given at bedtime. However, based on tolerability, a part of the daily dose may be given in the morning.

patients = patients treated with zonisamide; cited from earlier work
[2] = in vivo; cited from earlier work
[3] = test system: cultured mouse spinal cord neurons; settings: 10-30 μg/mL; cited from earlier work
rat hippocampal slices = settings: 10-30 μg/mL; cited from earlier work
[4] = test system: GABA/benzodiazepine receptor ionophore complex; settings: in vitro; cited from earlier work
kindled rat model = settings: in vivo; cited from earlier work
cats [5] = settings: electrical stimulation of the visual cortex; cited from earlier work
rats = settings: cortical application of tungstic acid gel in rats; cited from earlier work
cats [6] = settings: cortical freezing in cats; cited from earlier work
beagle dogs = settings: dog, in vivo, 75 mg/kg/day; cited from earlier work
[7] = preliminary studies; cited from earlier work

| Compound | average bodyweight lost ([1]; 16-week period, all randomized subjects, last observation carried forward, flexible dosing, maximum 600 mg/day, plus hypocaloric diet, p<0.0001 vs placebo) [%] | greater weight loss over placebo treatment (random coefficient regression estimate) ([1]; 16-week study duration, effects for age, race, gender, BMI, percent body fat, p<0.0001) [kg] | efficacy versus placebo as adjunct to hypocaloric diet in treatment of obesity ([1]; 16 weeks) | tolerability / side effects ([1]; 16 weeks, up to 600 mg/day) | subjects who lost ≥5% weight ([1]; 16 weeks, responders/subjects in group, p<0.0003 vs placebo) | course of weight loss over time (patients) | weight loss as adverse event (patients) | adverse effect on appetite [2] | effect on postsynaptic GABA or glutamate responses [3] | effect on synaptically-driven electrical activity [3] | effect on neuronal or glial uptake of [^3H]-GABA (rat hippocampal slices) | binding to GABA/benzodiazepine receptor ionophore complex [4] | anticonvulsant activity in threshold for generalized seizures (kindled rat model) | duration of cortical focal seizures (cats [5]) | interictal spikes and secondarily generalized seizures (rats) | interictal spikes and secondarily generalized seizures (cats [6]) | body weight change in chronic toxicity test (beagle dogs) | effect on appetite and binging [7] |
| --- | --- | --- | --- | --- | --- | --- | --- | --- | --- | --- | --- | --- | --- | --- | --- | --- | --- | --- |
| NS(=O)(=O)Cc1noc2ccccc12 [zonisamide, 1,2-benzisoxazole-3-methanesulfonamide] | 5.98 | 4.99 | significantly more effective than placebo | tolerated well with minimal side effects | 17/30 | the weight loss did not continue over time | weight loss was an adverse event | loss of appetite as an adverse effect | without affecting postsynaptic GABA or glutamate responses | suppresses synaptically-driven electrical activity | without affecting | binds to the GABA/benzodiazepine receptor ionophore complex in an allosteric fashion which does not produce changes in chloride flux | demonstrated an anticonvulsant activity | reduced the duration of cortical focal seizures | suppresses both interictal spikes and the secondarily generalized seizures | suppresses both interictal spikes and the secondarily generalized seizures | early body weight losses occurred |  |
| CC1(C)O[C@@H]2[C@@H](CO[C@@]3(COS(N)(=O)=O)OC(C)(C)O[C@@H]23)O1 [topiramate] |  |  |  |  |  |  |  |  |  |  |  |  |  |  |  |  |  | suppress the appetite and to reduce the amount of binging |
